Assay results published in ChEMBL document CHEMBL1139295, “Two new cytotoxic diterpenes from the rhizomes of Hedychium spicatum” (Bioorg Med Chem Lett, 2009).
Values after ≈ are worked out from the molar mass of the structure shown. Active and inactive are the calls of the source. The calls are words filed in the database; no cut-off is given here.

How the values were obtained:
A549 = experiment: Cytotoxicity against human A549 cells; format: functional, cell-based
CHO = experiment: Cytotoxicity against CHO cells; format: cell-based; conditions: Cricetulus griseus
MCF7 = experiment: Cytotoxicity against human MCF7 cells; format: functional, cell-based
A-431 = experiment: Cytotoxicity against human A431 cells; format: functional, cell-based
COLO 205 = experiment: Cytotoxicity against human COLO205 cells; format: functional, cell-based

Row | SMILES | Activity (A549) | IC50 (CHO) [µg/mL] | IC50 (MCF7) [µg/mL] | IC50 (A-431) [µg/mL] | IC50 (COLO 205) [µg/mL] | IC50 (A549) [µg/mL]
1 | C=C1CC(=O)[C@H]2C(C)(C)CCC[C@]2(C)[C@H]1C/C=C1\CC(O)OC1=O (stereo not given in full) | inactive | 20.4 (≈ 61.2 µM) | 49.3 (≈ 148 µM) | 30.5 (≈ 91.8 µM) | 27.6 (≈ 82.9 µM) | 
2 | CC1=C(O)C(=O)[C@H]2C(C)(C)CCC[C@]2(C)[C@H]1/C=C/C1=CC(=O)OC1 |  | 7.69 (≈ 23.3 µM) | 21.1 (≈ 63.7 µM) | 16 (≈ 48.5 µM) | 12 (≈ 36.4 µM) | 38 (≈ 115 µM)
3 | C=C1[C@@H](O)C[C@H]2C(C)(C)CCC[C@]2(C)[C@H]1C/C=C1/CCOC1=O | inactive | 21.3 (≈ 67 µM) | 33.5 (≈ 105 µM) | 31.5 (≈ 99 µM) | 29.8 (≈ 93.6 µM) | 
4 | COc1cc(O)c2c(=O)cc(-c3ccccc3)oc2c1 [TECHTOCHRYSIN] |  | 23.5 (≈ 87.7 µM) | 51 (≈ 190 µM) | 39 (≈ 145 µM) | 37.1 (≈ 138 µM) | 49.6 (≈ 185 µM)
5 | C=C1C[C@@H](O)[C@H]2C(C)(C)CCC[C@]2(C)[C@H]1/C=C/c1ccoc1 [YUNNACORONARIN A] |  | 17.9 (≈ 59.5 µM) | 28 (≈ 93.4 µM) | 29 (≈ 96.6 µM) | 27.1 (≈ 90.3 µM) | 46.6 (≈ 155 µM)
6 | O=c1c(O)c(-c2ccccc2)oc2cc(O)cc(O)c12 [GALANGIN] |  | 27 (≈ 99.8 µM) | 53.1 (≈ 196 µM) | 39.4 (≈ 146 µM) | 33.1 (≈ 123 µM) | 54.2 (≈ 201 µM)
7 | CC1=CC(=O)[C@H]2C(C)(C)CCC[C@]2(C)[C@@]1(O)/C=C/c1ccoc1 |  | 15.7 (≈ 49.9 µM) | 30.9 (≈ 98.4 µM) | 26.1 (≈ 83 µM) | 24 (≈ 76.4 µM) | 41.2 (≈ 131 µM)
